In patent publication US9440913B2, “Dihydroxybenzene derivatives and antiprotozoal agent comprising same as active ingredient” (NAI INC., priority 2010, dated 2016):
Like-named read-outs stand apart in the source and are kept apart here.

What was measured:
[1] = biological target: T1, recombinant Trypanosome AOX (TAO) enzyme (Trypanosoma brucei brucei, UniProt Q26710); experiment: TAO enzyme inhibition (quinol oxidase activity, ubiquinol-1 substrate); type: biochemical, T. brucei brucei; conditions: TAO-expressing E. coli membrane fraction, 25° C., ubiquinol-1, absorbance at 278 nm
T1 construct: made in house; host or cells: Escherichia coli (membrane fraction)
T1 sequence (Q26710 whole entry): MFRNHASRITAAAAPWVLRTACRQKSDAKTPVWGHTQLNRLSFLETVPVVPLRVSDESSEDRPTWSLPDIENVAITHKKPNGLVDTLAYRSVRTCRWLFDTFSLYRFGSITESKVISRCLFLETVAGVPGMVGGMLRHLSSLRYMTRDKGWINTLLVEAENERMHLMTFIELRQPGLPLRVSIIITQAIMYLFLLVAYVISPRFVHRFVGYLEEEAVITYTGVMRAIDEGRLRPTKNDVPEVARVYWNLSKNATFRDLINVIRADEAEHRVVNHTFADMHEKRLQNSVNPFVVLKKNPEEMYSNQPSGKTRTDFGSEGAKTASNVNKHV
Method: Escherichia coli membrane fractions that express TAO by a plasmid harboring TAO cDNA cloned from T. brucei brucei (Fukai, Comparative Biochemistry & Physiology, 124, 141-148, 1999) were used as a recombinant Trypanosome AOX (TAO) enzyme. 50 mM Tris-HCl (pH 7.5), TAO-expressing membrane fraction (0.35 ng), and […] of an inhibitor were mixed in a 1 mL cuvette, and the mixture was incubated at 25° C. for 4 minutes. Ubiquinol-1 as a substrate was then added to the mixture to initiated the reaction, and change in absorbance at 278 nm was monitored (Shimadzu UV-3000, molar absorption coefficient ε=15 cm^−1 mM^−1).

[2] = biological target: Cryptosporidium cyanide insensitive oxidase (AOX), recombinant protein (cCpAOX) (Cryptosporidium parvum, UniProt Q761U6); experiment: CpAOX enzyme inhibition; type: biochemical
Cryptosporidium cyanide insensitive oxidase (AOX), recombinant protein (cCpAOX), sequence (Q761U6 entry or part of it): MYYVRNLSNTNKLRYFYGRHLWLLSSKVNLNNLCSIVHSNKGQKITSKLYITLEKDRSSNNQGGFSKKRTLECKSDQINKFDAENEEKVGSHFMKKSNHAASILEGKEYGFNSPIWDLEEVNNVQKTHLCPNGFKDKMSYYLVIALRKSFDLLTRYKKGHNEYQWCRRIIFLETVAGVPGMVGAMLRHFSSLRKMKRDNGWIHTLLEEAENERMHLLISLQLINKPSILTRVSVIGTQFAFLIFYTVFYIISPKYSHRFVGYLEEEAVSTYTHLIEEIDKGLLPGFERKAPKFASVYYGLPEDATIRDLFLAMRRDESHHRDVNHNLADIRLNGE
Text: Cryptosporidium has found to have cyanide insensitive oxidase (AOX), and its inhibitory activity was observed using its recombinant protein (cCpAOX) produced in E. coli.

[3] = test system: T. b. rhodesiense IL1501; experiment: Antiprotozoal effect, MIC measurement in HMI-9 culture; type: cell-based; conditions: for MIC: Trypanosoma brucei, RHODESIENSE, 24 h, bloodstream forms, 18 + 6 hours culture
Method: T. b. rhodesiense IL1501, the human infectious protozoan that causes acute symptoms, was used as a Trypanosomatid protozoan. The bloodstream forms of protozoan can be cultured in a HMI-9 culture medium (Hirumi, 1989). The protozoan was always cultured at a temperature of 37° C. in the presence of 5% CO2.
In a microtiter plate (96-well, FALCON 3072), HMI-9 culture medium and HMI-9 culture medium plus glycerol added to make a final concentration of 8.33 mM are separately prepared. 89 μL of the preparation are put into only the first well, and a 60 μL aliquot of each the other wells. 1 μL of a solution of AF or a AF derivative dissolved in DMSO was added to the first well, and was then suspended. A 30 μL aliquot of the suspension was then collected, was transferred to the second well, and was suspended. These operations were repeated in this order to prepare a three-fold dilution series of drug. A 40 μL aliquot of a protozoan culture was added to each well to make a final concentration of 5×10^4 cells/well (a final concentration of glycerol of 5 mM) followed by 18-hours culturing under conditions of 37° C. and 5% CO2. (For EC50 measurement, a 10 μL aliquot of Alamar Blue was added to each well), culturing was carried out under the same conditions for 6 more hours, surviving protozoans were visually observed with a microscope. The concentration at which no motile surviving protozoan was observed was defined as MIC.

[4] = Glycerol (+), final concentration of glycerol of 5 mM

Row | SMILES | IC50 [1] | melting point | other results
1 | Cc1c(Cl)c(O)c(CCCCCCCCOC(=O)C(C)C)c(O)c1C=O [Compound 215-12-OCOiPr, 8-(3-Chloro-5-formyl-2,6-dihydroxy-4-methylphenyl)octyl isobutylate] | 0.29 nM | – | IC50 ([2]; recombinant protein produced in E. coli, read-out: CpAOX enzyme inhibition (IC50:nM)): 3.7 nM
2 | CC(C)=CCC/C(C)=C/Cc1c(O)cc(C)c(C=O)c1O [Compound 216, (E)-2,4-Dihydroxy-3-(3,7-dimethyl-2,6-octadienyl)-6-methylbenzaldehyde] | – | 120 to 121 °C | –
3 | CC(C)=CCC/C(C)=C/Cc1c(O)c(Cl)cc(C=O)c1O [Compound 224, (E)-5-Chloro-2,4-dihydroxy-3-(3,7-dimethyl-2,6-octadienyl)benzaldehyde] | – | 94 to 95 °C | –
4 | C/C(=C\CC/C(C)=C/Cc1c(O)c(Cl)c(C)c(C=O)c1O)CO [Compound 236-9-OH, 3-Chloro-4,6-dihydroxy-5-[(2E,6E)-8-hydroxy-3,7-dimethyl-2,6-octadienyl]-2-methylbenzaldehyde] | 0.3 nM | 99 to 99.7 °C | –
5 | Cc1c(Cl)c(O)c(CCCCCCCCCC(=O)OCC2COC(=O)O2)c(O)c1C=O (stereo not drawn) [Compound 501-16-G, 1,3 Dioxolane-2-oxo-4-methyl 10-(3-chloro-5-formyl-2,6-dihydroxy-4-methylphenyl)decanoate] | 0.32 nM | 70 to 72 °C | MIC [3, 4]: 1800 nM; MIC ([3]; Glycerol (−)): 14000 nM
6 | Cc1c(Cl)c(O)c(CCCCCCCC(=O)O)c(O)c1C=O [Compound 215-9-COOH, 8-(3-Chloro-5-formyl-2,6-dihydroxy-4-methylphenyl)octanoic acid] | – | 149 to 150 °C | –
7 | Cc1c(Cl)c(O)c(CCC(C)CCCC(C)COC(=O)C(C)(C)C)c(O)c1C=O (stereo not drawn) [Compound 235-12-OPiv, 8-(3-Chloro-5-formyl-2,6-dihydroxy-4-methylphenyl)-2,6-dimethyloctyl pivalate] | – | – | IC50 [2]: 2.3 nM
8 | Cc1c(Cl)c(O)c(CCCCCCCCCOC(=O)C(C)(C)C)c(O)c1C=O [Compound 215-13-OPiv, 9-(3-Chloro-5-formyl-2,6-dihydroxy-4-methylphenyl)nonyl pivalate] | 0.22 nM | 62 °C | MIC [3, 4]: 0.0081 nM; MIC ([3]; Glycerol (−)): 280 nM
9 | Cc1c(Cl)c(O)c(CCCCCCCCCCCC(=O)O)c(O)c1C=O [Compound 215-13-COOH, 12-(3-Chloro-5-formyl-2,6-dihydroxy-4-methylphenyl)dodecanoic acid] | 4.2 nM | 130 to 131 °C | –
10 | C/C(=C\Cc1c(O)c(Cl)c(C)c(C=O)c1O)CC/C=C(\C)C1OC(C)C(C)O1 (stereo not drawn) [Compound 509-11, 3-Chloro-5-((2E,6E)-7-(4,5-dimethyl-1,3-dioxolane-2-yl)-3-methyl-2,6-octadienyl)-4,6-dihydroxy-2-methylbenzaldehyde] | 0.3 nM | 35 to 36 °C | –
11 | COC(=O)c1c(C)cc(O)c(C/C=C(\C)CCC=C(C)C)c1O [Compound 146, Methyl (E)-3-(3,7-Dimethyl-2,6-octadienyl)-2,4-dihydroxy-6-methylbenzoate] | – | 46 to 47 °C | –
12 | Cc1c(Cl)c(O)c(CCCCCCCC2CC(=O)C(C)(C)O2)c(O)c1C=O (stereo not drawn) [Compound 250, 5-Chloro-2,4-dihydroxy-6-methyl-3-[7-(3,3-dimethyl-4-oxo-2-oxacyclopentyl)heptyl]benzaldehyde] | 0.5 nM | 70 to 71 °C | MIC [3, 4]: 0.78 nM; MIC ([3]; Glycerol (−)): 12 nM
13 | CC(C)=CCC/C(C)=C/Cc1c(O)ccc(C=O)c1O [Compound 217, (E)-2,4-Dihydroxy-3-(3,7-dimethyl-2,6-octadienyl)benzaldehyde] | – | 85 °C | –
14 | Cc1c(Cl)c(O)c(CCCCCCCOC(=O)C(C)(C)C)c(O)c1C#N [Compound 193-11-OPiv, 7-(3-Chloro-5-cyano-2,6-dihydroxy-4-methylphenyl)heptyl pivalate] | 6 nM | 67 to 68 °C | –
15 | C/C(=C\Cc1c(O)c(Cl)c(C)c(C=O)c1O)CC/C=C(\C)COC1CCCO1 (stereo not drawn) [Compound 236-12-OTHF, 3-Chloro-5-[(2E,6E)-3,7-dimethyl-8-(tetrahydrofuran-2-yloxy)-2,6-octadienyl]-4,6-dihydroxy-2-methylbenzaldehyde] | 0.12 nM | 35 to 36 °C | –
16 | Cc1c(Cl)c(O)c(/C=C/CCCCCCOC(=O)C(C)(C)C)c(O)c1C=O [Compound 200-12-OPiv, (E)-8-(3-Chloro-5-formyl-2,6-dihydroxy-4-methylphenyl)-7-octenyl pivalate] | 0.7 nM | 57 to 58 °C | –
17 | C/C(=C\Cc1c(O)c(Cl)c(C)c(C=O)c1O)CC/C=C(\C)CCC1OC1(C)C (stereo not drawn) [Compound 281-12, 3-Chloro-5-[(2E,6E)-3,7-dimethyl-9-(3,3-dimethyloxiran-2-yl)-2,6-nonadienyl]-4,6-dihydroxy-2-methylbenzaldehyde] | 0.21 nM | 36 to 37 °C | –
18 | COC(=O)c1cc(Cl)c(O)c(C/C=C(\C)CCC=C(C)C)c1O | – | 71 °C | –
19 | CCCCCC(C)CCc1c(O)c(Cl)c(C)c(C=O)c1O (stereo not drawn) [Compound 265-8, 3-Chloro-4,6-dihydroxy-2-methyl-5-(3-methyloctyl)benzaldehyde] | 0.18 nM | 65 to 67 °C | MIC [3, 4]: 0.011 nM; MIC ([3]; Glycerol (−)): 0.46 nM
20 | CC(=O)c1c(C)c(Cl)c(O)c(C/C=C(\C)CCC=C(C)C)c1O [Compound 173, (E)-3-Chloro-4,6-dihydroxy-5-(3,7-dimethyl-2,6-octadienyl)-2-methylacetophenone] | 0.15 nM | 57 to 58 °C | Antiprotozoal Effect (MIC) Glycerol (+) ([3]; Glycerol (+), final concentration of glycerol of 5 mM, cell prints its own unit fM): 0.0008 nM; MIC ([3]; Glycerol (−)): 1.4 nM
21 | C/C(C=O)=C\CC/C(C)=C/Cc1c(O)c(Cl)c(C)c(C=O)c1O [Compound 274-9, 3-Chloro-5-[(2E,6E)-3,7-dimethyl-8-oxo-2,6-octadienyl]-4,6-dihydroxy-2-methylbenzaldehyde] | 0.3 nM | 111.2 to 111.4 °C | –
22 | CC(=O)c1c(C)c(Cl)c(O)c(C/C=C(\C)CC/C=C(\C)CCC=C(C)C)c1O [Compound 282-12, (E,E)-3-Chloro-4,6-dihydroxy 5-(3,7,11-trimethyl-2,6,10-dodecathenyl)-2-methylacetophenone] | 0.15 nM | 92 to 93 °C | MIC [3, 4]: 11 nM; MIC ([3]; Glycerol (−)): 19 nM
23 | COC(=O)c1ccc(O)c(C/C=C(\C)CCC=C(C)C)c1O [Compound 161, Methyl (E)-3-(3,7-Dimethyl-2,6-octadienyl)-2,4-dihydroxybenzoate] | – | 62 °C | –
24 | CCC(=O)OCCCCCCC/C=C/c1c(O)c(Cl)c(C)c(C=O)c1O [Compound 200-13-OCOEt, (E)-9-(3-Chloro-5-formyl-2,6-dihydroxy-4-methylphenyl)-8-nonenyl propionate] | 0.3 nM | 72 to 73 °C | –
25 | CC(C)=CCCC#CCc1c(O)c(Cl)c(C)c(C=O)c1O [Compound 285-8, 3-Chloro-4,6-dihydroxy-2-methyl-5-(7-methyl-6-octen-2-ynyl)benzaldehyde] | 0.3 nM | 138 °C | –
26 | CCCCCC(C)=CCc1c(O)c(Cl)c(C)c(C(C)=O)c1O (mixture of isomers) [Compound 268-8, (E/Z)-3-Chloro-4,6-dihydroxy-2-methyl-5-(3-methyl-2-octenyl)acetophenone] | 0.55 nM | 42 to 46 °C | MIC [3, 4]: 0.28 nM; MIC ([3]; Glycerol (−)): 14.7 nM
27 | COCOC/C(C)=C/CC/C(C)=C/Cc1c(O)c(Cl)c(C)c(C=O)c1O [Compound 236-12-OMOM, 3-Chloro-5-[(2E,6E)-3,7-dimethyl-8-(methoxymethoxy)-2,6-octadienyl]-4,6-dihydroxy-2-methylbenzaldehyde] | 0.12 nM | 49 to 50 °C | –
28 | C/C(=C\Cc1c(O)c(Cl)cc(C=O)c1O)CC/C=C(\C)C1CC(=O)C(C)(C)O1 (stereo not drawn) [Compound 209, 5-Chloro-2,4-dihydroxy-3-[(2E,6E)-7-(5,5-dimethyl-4-oxotetrahydrohuran-2-yl)-3,7-dimethyl-2,6-heptadienyl]benzaldehyde] | 0.2 nM | 70 to 72 °C | –
29 | CC(=O)c1cc(Cl)c(O)c(CCCCCCCOC(=O)C(C)(C)C)c1O [Compound 178-11-OPiv, 7-(3-Acetyl-5-chloro-2,6-dihydroxyphenyl)heptyl pivalate] | – | 48 °C | –
